This note sets out measurements from patent publication US20260138978A1, “POSITIVE ALLOSTERIC MODULATORS OF THE MUSCARINIC ACETYLCHOLINE RECEPTOR M1” (Vanderbilt University, priority 2022, published 2026).

For assay [1], the target named is T1, human mAChRM1 (Homo sapiens, UniProt P11229).
T1 construct: host or cells: CHO-K1
T1 sequence (P11229 1-460): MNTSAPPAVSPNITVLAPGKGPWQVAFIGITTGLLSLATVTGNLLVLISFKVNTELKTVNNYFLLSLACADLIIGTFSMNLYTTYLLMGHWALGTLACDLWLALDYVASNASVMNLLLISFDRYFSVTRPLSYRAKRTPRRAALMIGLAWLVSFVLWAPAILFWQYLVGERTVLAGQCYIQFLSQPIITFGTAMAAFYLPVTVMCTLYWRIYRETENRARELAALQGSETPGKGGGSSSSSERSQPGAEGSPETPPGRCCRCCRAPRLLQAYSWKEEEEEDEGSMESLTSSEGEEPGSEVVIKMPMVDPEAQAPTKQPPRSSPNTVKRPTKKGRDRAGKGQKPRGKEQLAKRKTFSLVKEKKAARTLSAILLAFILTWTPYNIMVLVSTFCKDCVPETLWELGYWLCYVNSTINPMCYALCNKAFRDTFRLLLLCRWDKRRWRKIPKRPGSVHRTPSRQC
Nature of the assay: mAChR M1 cell-based functional assay (calcium mobilization), positive allosteric modulator activity: increase in the EC20 acetylcholine response. As to conditions: for Emax: PAM mode; for EC50: increase in the EC20 acetylcholine response, read-out: PAM Activity Human M1 EC50; call rule not given here. The method, boiled down: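 Potentiation is scored as the rise in an EC20 acetylcholine-evoked calcium signal across 11-point (1:3) compound series, fitted with a four-parameter logistic equation to give EC50 and Emax. Read-out is Fluo-4 fluorescence ratio in hM1-transfected CHO-K1 cells, measured kinetically on FDSS.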
In general terms: Calcium flux is commonly read through the fluorescence of an indicator in the cells.

Assay [2] concerns the target T1, human mAChRM1. Nature of the assay: mAChR M1 cell-based functional assay (calcium mobilization), agonist activity upon compound addition, Emax relative to acetylcholine maximum. As to conditions: for Agonist Activity Human M1 EC50 / EC50: calcium mobilization upon compound addition; for Emax: relative to the maximum for acetylcholine. The method, boiled down:
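Emax is given as a percentage of the maximal acetylcholine response, from four-parameter curves of compound-evoked calcium mobilization. Human M1-transfected CHO-K1 cells carried Fluo-4 dye, and compound (11 concentrations, 1:3 steps) was applied at 4 s of a 300 s kinetic fluorescence recording.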

Each structure is given as a SMILES string.

As to `Cn1cc2c(-c3cc(F)c(CN4Cc5ncccc5C4=O)c(F)c3)ccc(C(O)(C3CC3)C3CC3)c2n1` [Compound 84, 6-(4-(7-(dicyclopropyl(hydroxy)methyl)-2-methyl-2H-indazol-4-yl)-2,6-difluorobenzyl)-6,7-dihydro-5H-pyrrolo[3,4-b]pyridin-5-one], in assay [1], the maximal effect (Emax) (in general, the maximal effect, on the per cent scale that the assay sets) is 84% and the EC50 (as a rule, the concentration that produces a half-maximal response) amounted to 1.44 µM. The “Agonist Activity Human M1 EC50” value in assay [2] is “inactive”.
The matching figures for `CC(C)(O)c1ccc(-c2ccc(CN3Cc4ncccc4C3=O)cc2)cc1` [Compound 11, 6-((4′-(2-hydroxypropan-2-yl)-[1,1′-biphenyl]-4-yl)methyl)-6,7-dihydro-5H-pyrrolo[3,4-b]pyridin-5-one]: 65%, 6.4 µM and “inactive”.
Turning to `Cc1cc(-c2ccc(C(C)(C)O)c3nn(C)cc23)cc(Cl)c1CN1Cc2ncccc2C1=O` [Compound 65, 6-(2-chloro-4-(7-(2-hydroxypropan-2-yl)-2-methyl-2H-indazol-4-yl)-6-methylbenzyl)-6,7-dihydro-5H-pyrrolo[3,4-b]pyridin-5-one], in assay [1], the Emax amounted to 65% and the EC50 was found to be 0.135 µM. In assay [2], the 50% effective concentration (EC50) is not below 10 µM and the Emax stood at 28%.
Take `CCC(C)(O)c1ccc(-c2cc(F)c(CN3Cc4ncccc4C3=O)c(F)c2)c2cn(C)nc12` (stereo not shown) [Compound 82, 6-(2,6-difluoro-4-(7-(2-hydroxybutan-2-yl)-2-methyl-2H-indazol-4-yl)benzyl)-6,7-dihydro-5H-pyrrolo[3,4-b]pyridin-5-one]: in assay [1], the Emax was 80% and the half-maximal effective concentration (EC50) was determined as 0.138 µM. The “Agonist Activity Human M1 EC50” value in assay [2] is “inactive”.
Take `Cc1cc(-c2ccc(C(C)(C)O)c3nn(C)cc23)cc(F)c1CN1Cc2cccnc2C1=O` [Compound 123, 6-(2-fluoro-4-(7-(2-hydroxypropan-2-yl)-2-methyl-2H-indazol-4-yl)-6-methylbenzyl)-5,6-dihydro-7H-pyrrolo[3,4-b]pyridin-7-one]: the results for the maximal effect (Emax) in assay [1] and in assay [2] were 84% and 34%, respectively. In addition, the 50% effective concentration (EC50) in assay [1] is 0.124 µM; in assay [2], not below 10 µM.
For `CC(C)(O)c1ccc(-c2cc(F)c(CN3Cc4ncccc4C3=O)c(F)c2)cc1Cl` [Compound 8, 6-((3′-chloro-3,5-difluoro-4′-(2-hydroxypropan-2-yl)-[1,1′-biphenyl]-4-yl)methyl)-6,7-dihydro-5H-pyrrolo[3,4-b]pyridin-5-one], in assay [1], the maximum response (Emax) was 69% and the concentration giving a half-maximal response (EC50) was found to be 1.98 µM. In addition, the “Agonist Activity Human M1 EC50” value in assay [2] is “inactive”.
On to `Cn1cc2c(-c3cc(F)c(CN4Cc5ncccc5C4=O)c(F)c3)ccc(C3(O)CCC3)c2n1` [Compound 96, 6-(2,6-difluoro-4-(7-(1-hydroxycyclobutyl)-2-methyl-2H-indazol-4-yl)benzyl)-6,7-dihydro-5H-pyrrolo[3,4-b]pyridin-5-one], for which, in assay [1], the Emax was 84% and the EC50 was 0.63 µM. Besides, the “Agonist Activity Human M1 EC50” value in assay [2] is “inactive”.
As to `Cn1cc2cc(-c3ccc(CN4Cc5cccc(F)c5C4=O)c(F)c3F)cc(C(C)(C)O)c2n1` [Compound 170, 2-(2,3-difluoro-4-(7-(2-hydroxypropan-2-yl)-2-methyl-2H-indazol-5-yl)benzyl)-7-fluoroisoindolin-1-one], in assay [1], the Emax was 71% and the concentration for a half-maximal effect (EC50) stood at 1.96 µM. In addition, the “Agonist Activity Human M1 EC50” value in assay [2] was “inactive”.
With `Cn1cc2c(-c3cc(F)c(CN4Cc5ncccc5C4=O)c(C4CCCC4)c3)ccc(C(C)(C)O)c2n1` [Compound 66, 6-(2-cyclopentyl-6-fluoro-4-(7-(2-hydroxypropan-2-yl)-2-methyl-2H-indazol-4-yl)benzyl)-6,7-dihydro-5H-pyrrolo[3,4-b]pyridin-5-one], in assay [1], the Emax stood at 62% and the half-maximal effective concentration (EC50) was determined as 1.91 µM. In addition, the “Agonist Activity Human M1 EC50” value in assay [2] is “inactive”.
Take `Cc1cc(-c2cc(C(C)(C)O)c3nn(C)cc3c2)ccc1CN1Cc2cccc(F)c2C1=O` [Compound 167, 7-fluoro-2-(4-(7-(2-hydroxypropan-2-yl)-2-methyl-2H-indazol-5-yl)-2-methylbenzyl)isoindolin-1-one]: in assay [1], the Emax worked out at 74% and the EC50 was found to be 3.12 µM. In addition, the “Agonist Activity Human M1 EC50” value in assay [2] was “inactive”.
Consider `[2H]C([2H])([2H])C(O)(c1ccc(-c2cc(F)c(CN3Cc4ncccc4C3=O)c(F)c2)c2cn(C)nc12)C([2H])([2H])[2H]` [Compound 93, 6-(2,6-difluoro-4-(7-(2-hydroxypropan-2-yl-1,1,1,3,3,3-d6)-2-methyl-2H-indazol-4-yl)benzyl)-6,7-dihydro-5H-pyrrolo[3,4-b]pyridin-5-one], for which, in assay [1], the Emax amounted to 83% and the EC50 amounted to 0.076 µM. Moreover, in assay [2], the 50% effective concentration (EC50) was 1.87 µM and the Emax amounted to 22%.
The matching figures for `CC(C)(O)c1cc2c(-c3cc(F)c(CN4Cc5ncccc5C4=O)c(F)c3)cccn2n1` [Compound 107, 6-(2,6-difluoro-4-(2-(2-hydroxypropan-2-yl)pyrazolo[1,5-a]pyridin-4-yl)benzyl)-6,7-dihydro-5H-pyrrolo[3,4-b]pyridin-5-one]: 77%, 2.79 µM, not below 10 µM and 12%.
`CC(C)(O)c1ccc(-c2cc(F)c(CN3Cc4ncccc4C3=O)c(C(F)(F)F)c2)cc1` [Compound 44, 6-((3-fluoro-4′-(2-hydroxypropan-2-yl)-5-(trifluoromethyl)-[1,1′-biphenyl]-4-yl)methyl)-6,7-dihydro-5H-pyrrolo[3,4-b]pyridin-5-one]: in assay [1], the maximal effect (Emax) turned out to be 61% and the concentration giving a half-maximal response (EC50) stood at 5.68 µM. The “Agonist Activity Human M1 EC50” value in assay [2] was “inactive”.
On to `Cn1cc2c(-c3cc(F)c(CN4Cc5ncccc5C4=O)c(N4CCC4)c3)ccc(C(C)(C)O)c2n1` [Compound 78, 6-(2-(azetidin-1-yl)-6-fluoro-4-(7-(2-hydroxypropan-2-yl)-2-methyl-2H-indazol-4-yl)benzyl)-6,7-dihydro-5H-pyrrolo[3,4-b]pyridin-5-one], for which, in assay [1], the Emax came out at 81% and the EC50 stood at 0.583 µM. Moreover, the “Agonist Activity Human M1 EC50” value in assay [2] was “inactive”.
`Cn1cc2c(-c3cc(F)c(CN4Cc5ccncc5C4=O)c(F)c3)ccc(C(C)(C)O)c2n1` [Compound 140, 2-(2,6-difluoro-4-(7-(2-hydroxypropan-2-yl)-2-methyl-2H-indazol-4-yl)benzyl)-1,2-dihydro-3H-pyrrolo[3,4-c]pyridin-3-one]: in assay [1], the maximal response (Emax) worked out at 76% and the concentration giving a half-maximal response (EC50) was determined as 0.084 µM. Besides, in assay [2], the concentration giving a half-maximal response (EC50) came to 5.64 µM and the Emax was 41%.
As for `Cc1cc(-c2cc(C(C)(C)O)c3cn(C)nc3c2)cc(F)c1CN1Cc2ncccc2C1=O` [Compound 20, 6-(2-fluoro-4-(4-(2-hydroxypropan-2-yl)-2-methyl-2H-indazol-6-yl)-6-methylbenzyl)-6,7-dihydro-5H-pyrrolo[3,4-b]pyridin-5-one], in assay [1], the maximum response (Emax) was determined as 47% and the EC50 was not below 10 µM. In addition, the “Agonist Activity Human M1 EC50” value in assay [2] was “inactive”.
With `Cc1cc(-c2cc(C(C)(C)O)c3nn(C)cc3c2)ccc1CN1Cc2ncccc2C1=O` [Compound 35, 6-(4-(7-(2-hydroxypropan-2-yl)-2-methyl-2H-indazol-5-yl)-2-methylbenzyl)-6,7-dihydro-5H-pyrrolo[3,4-b]pyridin-5-one], in assay [1], the maximal effect (Emax) worked out at 68% and the concentration for a half-maximal effect (EC50) stood at 0.958 µM. The “Agonist Activity Human M1 EC50” value in assay [2] is “inactive”.
Turning to `Cn1cc2c(-c3cc(Cl)c(CN4Cc5cccnc5C4=O)c(C4CC4)c3)ccc(C(C)(C)O)c2n1` [Compound 134, 6-(2-chloro-6-cyclopropyl-4-(7-(2-hydroxypropan-2-yl)-2-methyl-2H-indazol-4-yl)benzyl)-5,6-dihydro-7H-pyrrolo[3,4-b]pyridin-7-one], in assay [1], the Emax was determined as 76% and the concentration for a half-maximal effect (EC50) amounted to 1.31 µM. Also, in assay [2], the EC50 amounted to 9.05 µM and the Emax came out at 60%.
For `Cc1cc(-c2cn(C)nc2C(C)(C)O)ccc1CN1Cc2ncccc2C1=O` [Compound 31, 6-(4-(3-(2-hydroxypropan-2-yl)-1-methyl-1H-pyrazol-4-yl)-2-methylbenzyl)-6,7-dihydro-5H-pyrrolo[3,4-b]pyridin-5-one], in assay [1], the maximum response (Emax) amounted to 47% and the concentration for a half-maximal effect (EC50) is not below 10 µM. In assay [2], the “Agonist Activity Human M1 EC50” value was “inactive”.
For `Cn1cc2cc(-c3cc(F)c(CN4Cc5ncccc5C4=O)c(C4CC4)c3)cc(C(C)(C)O)c2n1` [Compound 88, 6-(2-cyclopropyl-6-fluoro-4-(7-(2-hydroxypropan-2-yl)-2-methyl-2H-indazol-5-yl)benzyl)-6,7-dihydro-5H-pyrrolo[3,4-b]pyridin-5-one], in assay [1], the maximal response (Emax) was 82% and the concentration giving a half-maximal response (EC50) worked out at 0.398 µM. For the same compound, in assay [2], the concentration giving a half-maximal response (EC50) is not below 10 µM and the Emax came out at 21%.
